Test system: 883617-216-R-J1-PDC tumor spheroids, viability
Test: Anticancer human tumor 883617-216-R-J1-PDC patient-derived bladder carcinoma cell line growth inhibition [PI3K]
Conditions: spheroids with HUVEC and MSC; for IC50: curve of first compound; for viability, T/C: stronger effect = lower value; active = viability on the fitted dose curve at most 10% of control; inactive = the rest
How it was run: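 Combination activity was assessed by viability in multicellular tumor spheroids carrying HUVEC and MSC components. Agents were tested with PI3K inhibitors from a Cmax-based top dose (or 10 microM) downward in half-log increments.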

[1] = second compound 0.00316 µM, first compound 0.0316 µM
[2] = second compound 0.00316 µM, first compound 0.1 µM
[3] = second compound 0.01 µM, first compound 0.0316 µM
[4] = second compound 0.01 µM, first compound 0.1 µM
[5] = second compound 0.0316 µM, first compound 0.0316 µM
[6] = second compound 0.0316 µM, first compound 0.1 µM
[7] = second compound 0.1 µM, first compound 0.0316 µM
[8] = second compound 0.1 µM, first compound 0.1 µM
[9] = second compound 0.316 µM, first compound 0.0316 µM
[10] = second compound 0.316 µM, first compound 0.1 µM
[11] = second compound 1 µM, first compound 0.0316 µM
[12] = second compound 1 µM, first compound 0.1 µM
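Note: spheroids exposed to agents for 7 days before the viability read.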

CC(C)n1nc(-c2ccc3oc(N)nc3c2)c2c(N)ncnc21 + COc1c(OCCCN2CCOCC2)ccc2c3n(c(=NC(=O)c4cnc(N)nc4)nc12)CCN3
20.1 nM: IC50 (second compound 0.00316 µM)
inactive: viability, T/C (second compound 0.00316 µM, first compound 0.000316 µM) 82.6% | viability, T/C (second compound 0.00316 µM, first compound 0.001 µM) 73.9% | viability, T/C (second compound 0.00316 µM, first compound 0.00316 µM) 79.2% | viability, T/C (second compound 0.00316 µM, first compound 0.01 µM) 63.6% | viability, T/C [1] 40.7% | viability, T/C [2] 17.4% | viability, T/C (second compound 0.01 µM, first compound 0.000316 µM) 64.9% | viability, T/C (second compound 0.01 µM, first compound 0.001 µM) 61.8% | viability, T/C (second compound 0.01 µM, first compound 0.00316 µM) 62.2% | viability, T/C (second compound 0.01 µM, first compound 0.01 µM) 49.2% | viability, T/C [3] 33.4% | viability, T/C [4] 14.4% | viability, T/C (second compound 0.0316 µM, first compound 0.000316 µM) 40.3% | viability, T/C (second compound 0.0316 µM, first compound 0.001 µM) 34.1% | viability, T/C (second compound 0.0316 µM, first compound 0.00316 µM) 34.9% | viability, T/C (second compound 0.0316 µM, first compound 0.01 µM) 28.6% | viability, T/C [5] 18.5% | viability, T/C [6] 11.5% | viability, T/C (second compound 0.1 µM, first compound 0.000316 µM) 14.7% | viability, T/C (second compound 0.1 µM, first compound 0.001 µM) 15.1% | viability, T/C (second compound 0.1 µM, first compound 0.00316 µM) 15.1% | viability, T/C (second compound 0.1 µM, first compound 0.01 µM) 13.2%
active: viability, T/C [7] 8.07% | viability, T/C [8] 4.79% | viability, T/C (second compound 0.316 µM, first compound 0.000316 µM) 5.33% | viability, T/C (second compound 0.316 µM, first compound 0.001 µM) 5.54% | viability, T/C (second compound 0.316 µM, first compound 0.00316 µM) 5.8% | viability, T/C (second compound 0.316 µM, first compound 0.01 µM) 5.35% | viability, T/C [9] 4.04% | viability, T/C [10] 3.54% | viability, T/C (second compound 1 µM, first compound 0.000316 µM) 2.62% | viability, T/C (second compound 1 µM, first compound 0.001 µM) 3.45% | viability, T/C (second compound 1 µM, first compound 0.00316 µM) 3.33% | viability, T/C (second compound 1 µM, first compound 0.01 µM) 3.45% | viability, T/C [11] 3.43% | viability, T/C [12] 2.69%
< 0.316 nM: IC50 (second compound 0.0316 µM) | IC50 (second compound 0.1 µM) | IC50 (second compound 0.316 µM) | IC50 (second compound 1 µM)
10.4 nM: IC50 (second compound 0.01 µM)

CCCS(=O)(=O)Nc1ccc(F)c(C(=O)c2c[nH]c3ncc(-c4ccc(Cl)cc4)cc23)c1F + COc1c(OCCCN2CCOCC2)ccc2c3n(c(=NC(=O)c4cnc(N)nc4)nc12)CCN3
3650 nM: IC50 (second compound 0.01 µM)
< 31.6 nM: IC50 (second compound 0.0316 µM) | IC50 (second compound 0.1 µM) | IC50 (second compound 0.316 µM) | IC50 (second compound 1 µM)
4090 nM: IC50 (second compound 0.00316 µM)
inactive: viability, T/C [1] 78.5% | viability, T/C [2] 88.4% | viability, T/C (second compound 0.00316 µM, first compound 0.316 µM) 85.1% | viability, T/C (second compound 0.00316 µM, first compound 1 µM) 77.9% | viability, T/C (second compound 0.00316 µM, first compound 3.16 µM) 61.7% | viability, T/C (second compound 0.00316 µM, first compound 10 µM) 10.4% | viability, T/C [3] 67% | viability, T/C [4] 72.6% | viability, T/C (second compound 0.01 µM, first compound 0.316 µM) 85.3% | viability, T/C (second compound 0.01 µM, first compound 1 µM) 61.7% | viability, T/C (second compound 0.01 µM, first compound 3.16 µM) 56.6% | viability, T/C (second compound 0.01 µM, first compound 10 µM) 13.1% | viability, T/C [5] 38.8% | viability, T/C [6] 45.7% | viability, T/C (second compound 0.0316 µM, first compound 0.316 µM) 47% | viability, T/C (second compound 0.0316 µM, first compound 1 µM) 44.2% | viability, T/C (second compound 0.0316 µM, first compound 3.16 µM) 36.9% | viability, T/C (second compound 0.0316 µM, first compound 10 µM) 12.8% | viability, T/C [7] 25% | viability, T/C [8] 19.9% | viability, T/C (second compound 0.1 µM, first compound 0.316 µM) 17.6% | viability, T/C (second compound 0.1 µM, first compound 1 µM) 17.8% | viability, T/C (second compound 0.1 µM, first compound 3.16 µM) 18% | viability, T/C (second compound 0.1 µM, first compound 10 µM) 7.55%
active: viability, T/C [9] 5.17% | viability, T/C [10] 7.28% | viability, T/C (second compound 0.316 µM, first compound 0.316 µM) 6.6% | viability, T/C (second compound 0.316 µM, first compound 1 µM) 8.36% | viability, T/C (second compound 0.316 µM, first compound 3.16 µM) 9.94% | viability, T/C (second compound 0.316 µM, first compound 10 µM) 4.39% | viability, T/C [11] 3.48% | viability, T/C [12] 4.22% | viability, T/C (second compound 1 µM, first compound 0.316 µM) 4.32% | viability, T/C (second compound 1 µM, first compound 1 µM) 5.19% | viability, T/C (second compound 1 µM, first compound 3.16 µM) 6.41% | viability, T/C (second compound 1 µM, first compound 10 µM) 2.37%
